According to patent US10723709B2, “Protease inhibitors” (MEDIVIR AB, priority 2008, dated 2020):

Tests used:
[1] = In vivo mouse PK, oral administration (FIG. 1); parameters: species or system male C57Bl mice; conditions: mice, orally administered 60 μmol/kg in 1% Methocel A4C vehicle; compared with Example 2 of WO2008 007107
Description: FIG. 1 depicts plasma concentration against time for male C57Bl mice orally administered a compound of the invention or a compound of the prior art.
Various embodiments of the invention will now be described by way of illustration only with reference to the following Examples and FIG. 1 which depicts plasma concentration against time for male C57Bl mice orally administered a compound of the invention or a compound of the prior art.

[2] = reference markers of the permeability assay; cited from earlier work

Description for Caco-2 cells: This experiment measures transport of inhibitors through the cells of the human gastroenteric canal. The assay uses the well known Caco-2 cells with a passage number between 40 and 60.
Apical to Basolateral Transport
The basolateral and the apical wells will contain 1.5 mL and 0.4 mL transport buffer (TB), respectively, and the standard concentration of the tested substances is 10 μM. Furthermore all test solutions and buffers will contain 1% DMSO. Prior to the experiment the transport plates are pre-coated with culture medium containing 10% serum for 30 minutes to avoid nonspecific binding to plastic material. After 21 to 28 days in culture on filter supports the cells are ready for permeability experiments. […]
0.5 mL transport buffer (HBSS, 25 mM MES, pH 6.5) is added to the inserts and the cell monolayers equilibrated in the transport buffer system for 30 minutes at 37° C. in a polymix shaker. After being equilibrated to the buffer system the Transepithelial electrical resistance value (TEER) is measured in each well by an EVOM chop stick instrument. […]
300 μL will be taken from the basolateral (receiver) wells at each scheduled time point and the post value of TEER is measured at the end the experiment. […]
Determination of the cumulative fraction absorbed, FAcum, versus time. FAcum is calculated from: […]
The determination of permeability coefficients (Papp, cm/s) are calculated from: […]

Molecule | % absorption in man [2] [%] | other results
C#C[C@@H]1CN(C(=O)[C@H](CC(C)C)NC(=O)c2ccc(-c3nc(N4CCN(C)CC4)sc3F)cc2)[C@@H]2C(=O)CO[C@H]12 [Example 2, N-[1-6-(ethynyl-3-oxo-hexahydro-furo[3,2-b]pyrrole-4-carbonyl)-3-methyl-butyl]-4-[5-fluoro-2-(4-methyl-piperazin-1-yl)thiazol-4-yl]-benzamide] |  | in vivo exposure (whether measured as Cmax or AUC) [1]: very much greater
N—((S)-1-((3aS, 6R, 6aS)-6-methoxy-oxodihydro-2H-furo[3,2-b]pyrrol-4(5H, 6H, 6aH)-yl)-4-methyl-oxopentan-2-yl)-4-(2-(4-methylpiperazine-1-yl)thiazol-4-yl)benzamide |  | papp value (Caco-2 cells): 9e-07 cm/s
CN(Cc1cnc2nc(N)nc(N)c2n1)c1ccc(C(=O)N[C@@H](CCC(=O)O)C(=O)O)cc1 [Methotrexate] | 20 | 
N[C@@H](Cc1ccccc1)C(=O)O [L-Phenylalanine] | 100 | 
OC[C@@H](O)[C@@H](O)[C@H](O)[C@H](O)CO [Mannitol] | 16 | 
